From patent publication US10202412B2, “β-D-2′-deoxy-2′-substituted-4′-substituted-2-substituted-N6-substituted-6-aminopurinenucleotides for the treatment of paramyxovirus and orthomyxovirus infections” (Atea Pharmaceuticals, Inc., priority 2016, dated 2019) come the findings set out here.

Like-named read-outs stand apart in the source and are kept apart here. Bounds are passed on as bounds.

Holding throughout (type): cell-based
The test system of data set [1] is Differentiated normal human bronchial epithelial (dNHBE) cells. Briefly: dNHBE assay: toxicity evaluated microscopically. Further details: unit not given here. Here is the method:
(§1) Differentiated normal human bronchial epithelial (dNHBE) cells were grown on 6 mm mesh disks in transwell inserts to approximately 1.2×10^6 cells/disk and disks were transferred to individual wells of a 6-well plate. 1 mL of proprietary culture medium was added to the basolateral side of the cells and the apical side was exposed to a humidified 95% air/5% CO2 environment. Cells were cultured at 37° C. for one day and then the mucin layer was removed from the apical side of the cells by repeated (3×) washing with 500 μL 30 mM HEPES buffered saline solution and culture medium on the basal side was replenished.
(§2) Various concentrations of test compounds in medium were applied in duplicate to the apical (140 μL) and basal sides (1 mL) for a 1 hour pre-treatment, followed by addition of 140 μL of virus inoculum to each cell insert on the apical side. The viral inoculum and treatments were removed after 2 hours. Control cells were treated with placebo (culture medium only). Following infection, the apical medium was removed and the basal side was replaced with fresh compound in medium. The cells were maintained at the air-liquid interface, and cell culture medium on the basal side was replaced daily with fresh medium containing test compound. After 4 days, the liquid was removed from the basal side and discarded and virus released into the apical compartment was harvested by the addition of 500 μL of culture medium. The medium was thoroughly mixed, then removed, diluted 1:1 with 40% sucrose and stored at ≤−80° C.
(§3) Concentrations of test compounds that reduced virus yield by 1 log10 (90% effective concentration; EC90) were calculated by regression analysis. The reported EC90 value is the mean of at least two experiments. Potential toxicity of the test compounds was evaluated microscopically.

For data set [2], the system named is human bone marrow progenitor cells (BFU-E). The data set is described as follows: Human bone marrow progenitor cell assay, BFU-E. The conditions noted are these: BFU-E-specific culture, 14-day incubation, colony counts, read-out: Bone Marrow Stem Cell IC50 BFU-E. Here is the method: (§4) Select compounds were tested in an in vitro selectivity study with human bone marrow progenitor cells. Fresh human bone marrow progenitor cells (Invitrogen) suspended in either BFU-E or GM-CSF-specific culture medium were added, at 10^5 cells/well, to triplicate serial dilutions of TA in 6-well plates. After 14-day incubations, colony counts were used to determine […] values. BFU-E colonies were confirmed using the benzidene technique. No cytotoxicity was observed from any of the tested compounds.

Data set [3] concerns Respiratory syncytial virus (RSV) type A, strain A2 (ATCC VR-1540). The data set is described as follows: dNHBE assay: RSV virus yield reduction (EC90). The conditions noted are these: RSV (A2) in dNHBE cells, concentration reducing virus yield by 1 log10, mean of at least two experiments. As for the experimental part:
as §1
Respiratory syncytial virus (RSV) type A, strain A2 (ATCC VR-1540), previously passaged in MA-104 cells to make working stock cultures, was diluted 1/10 in medium before infection, using a multiplicity of infection (MOI) of ≤0.03 CCID50 per cell.
as §2
To determine the virus titer from each treated cell culture, MA-104 cells were seeded in 96-well plates and grown overnight (37° C.) to confluence. Samples containing virus were diluted in 10-fold increments in infection medium and 200 μL of each dilution transferred into respective wells of a 96-well microtiter plate. Four microwells were used for each dilution to determine 50% viral endpoints. After 7 days of incubation, each well was scored positive for virus if any cytopathic effect was observed as compared with the uninfected control. The virus dose that was able to infect 50% of the cell cultures (CCID50 per 0.1 mL) was calculated by the Reed-Muench method. This was repeated in duplicate for each test sample, so that values reported are an average of 2 independent CCID5o determinations. Untreated, uninfected cell controls were tested as negative controls. Statistical differences in the titers were evaluated with a one-way analysis of variance (ANOVA) followed by Dunnett's multiple comparisons test compared with the untreated virus controls.
as §3

Data set [4] has as its system human bone marrow progenitor cells (CFU-GM). The data set is described as follows: Human bone marrow progenitor cell assay, CFU-GM (GM-CSF-specific culture). The following applies: 14-day incubation, colony counts, read-out: Bone Marrow Stem Cell IC50 CFU-GM. Here is the method:
as §4

In another data set the test system is iPS cardiomyocytes. The data set is described as follows: iPS cardiomyocyte assay (XTT viability). The conditions noted are these: 72 h, 3 days incubation, XTT staining. As for the experimental part:
Select compounds were tested in an in vitro selectivity study with iPS cardiomyocytes. iPS cardiomyocytes (Cellular Dynamics) were seeded in microliter plates at 1.5×10^4 cells per well. After 48-hr incubation, cells were washed and maintenance medium containing 30 serially diluted TA was added in triplicate. After incubating for an additional 3 days, cellviability was measured by staining with XTT and CC50 values were calculated. No cytotoxicity was observed from any of the tested compounds.
For orientation: Tetrazolium dyes change colour on reduction, which living cells bring about.

In data set [5] the test system is respiratory syncytial virus A2 (ATCC VR-1540). The data set is described as follows: Cytopathic effect assay with RSV A2 in MA-104 cells. The following applies: human respiratory syncytial virus, MA104, CPE inhibition, neutral red. As for the experimental part:
(§5) Test compounds were dissolved in DMSO and then prepared in eight half-log dilutions in MEM medium with 50 μg/mL gentamicin and 2% FBS (MA-104 cells only). Each dilution was added to 5 wells of a 96-well plate with 80-100% confluent cells (either MA-104 cells or HEp-2 cells). Three wells of each dilution were infected with respiratory syncytial virus A2 (ATCC VR-1540) and two wells remained uninfected as toxicity controls. After maximum cytopathic effect (CPE) was observed microscopically in untreated virus control wells, plates were stained with neutral red dye for approximately 2 hours, then supernatant dye was removed and the incorporated dye was extracted in 50:50 Sorensen citrate buffer/ethanol and read on a spectrophotometer. Optical density values were normalized based on cell and virus controls, then the concentration of test compound required to inhibit CPE by 50% (EC50) was calculated by regression analysis. The reported EC50 value is the mean of at least two experiments. The concentration of compound that caused 50% CPE in the absence of virus was similarly calculated to determine cytotoxicity (CC50).
A general note: Damage to the host cells serves as the signal in cytopathic effect assays.

Data set [6] has the same test system. Briefly: Cytopathic effect assay with RSV A2 in HEp-2 cells. The conditions noted are these: human respiratory syncytial virus; RSV in HEp-2 cells, CPE inhibition, neutral red. Here is the method:
as §5

The subject of the next data set is HEp-2 cells. Briefly: Cytotoxicity in uninfected HEp-2 cells, neutral red. Further details: unit not given here. The conditions noted are these: absence of virus. Here is the method:
as §5

Where [7] appears, read: human respiratory syncytial virus.

`CNc1nc(F)nc2c1ncn2[C@@H]1O[C@](C)(CO[P@@](=O)(N[C@@H](C)C(=O)OC(C)C)Oc2ccccc2)[C@@H](O)[C@H]1F` [AH, (S)-Isopropyl 2-(((S)-(((2R,3R,4R,5R)-5-(6-(methylamino)-2-fluoro-9H-purin-9-yl)-4-fluoro-3-hydroxy-2-methyltetrahydrofuran-2-yl)methoxy)(phenoxy)phosphoryl)amino) propanoate] had a Visual toxicity in data set [1] of over 1.7. The IC50 (usually the concentration at which inhibition is half-maximal) in data set [2] (Homo sapiens, 336 h) was over 100 µM; in data set [4] (Homo sapiens, CFU-GM, 336 h), over 100 µM; in the data set with iPS cardiomyocytes, over 100 µM. In data set [3] (setting [7]), the EC90 (in general, the point of the concentration-response curve where the effect stands at 90%) was determined as 0.12 µM.
In turn, `CNc1nc(N)nc2c1ncn2[C@@H]1O[C@](CCl)(CO[P@@](=O)(N[C@@H](C)C(=O)OC(C)C)Oc2ccccc2)[C@@H](O)[C@H]1F` [AI, (S)-Isopropyl 2-(((S)-(((2R,3R,4R,5R)-5-(2-amino-6-(methylamino)-9H-purin-9-yl)-2-(chloromethyl)-4-fluoro-3-hydroxytetrahydrofuran-2-yl)methoxy)(phenoxy)phosphoryl)amino) propanoate] yielded a Visual toxicity in data set [1] of over 1.6. Besides, the 50% inhibitory concentration (IC50) in data set [2] (Homo sapiens, 336 h) was over 100 µM; in data set [4] (Homo sapiens, CFU-GM, 336 h), over 100 µM; in the data set with iPS cardiomyocytes, over 100 µM. In addition, the EC90 in data set [3] (setting [7]) is 0.13 µM.
On to `CNc1nc(F)nc2c1ncn2[C@@H]1O[C@](CCl)(CO[P@@](=O)(N[C@@H](C)C(=O)OC(C)C)Oc2ccccc2)[C@@H](O)[C@@H]1F` [AQ, (S)-Isopropyl 2-(((S)-(((2R,3R,4S,5R)-5-(6-(methylamino)-2-fluoro-9H-purin-9-yl)-2-(chloromethyl)-4-fluoro-3-hydroxytetrahydrofuran-2-yl)methoxy)(phenoxy)phosphoryl)amino) propanoate], for which the Visual toxicity in data set [1] is over 1.6. In addition, the IC50 is over 100 µM in data set [2] (Homo sapiens, 336 h); over 100 µM in data set [4] (Homo sapiens, CFU-GM, 336 h); over 100 µM with iPS cardiomyocytes. In data set [3] (setting [7]), this molecule had an EC90 of 0.18 µM.
Regarding `Cc1cn([C@H]2C[C@H](N=[N+]=[N-])[C@@H](CO)O2)c(=O)[nH]c1=O` [AZT, reference compound], the IC50 in data set [2] worked out at 2.59 µM; in data set [4], 4.56 µM.
Consider `CC(C)OC(=O)[C@H](C)NP(=O)(OC[C@@]1(C)O[C@@H](n2cnc3c(N(C)C)nc(N)nc32)[C@H](F)[C@@H]1O)Oc1ccccc1` (stereo partly drawn) [B, (2S)-Isopropyl 2-(((((2R,3R,4R,5R)-5-(2-amino-6-(dimethylamino)-9H-purin-9-yl)-4-fluoro-3-hydroxy-2-methyltetrahydrofuran-2-yl)methoxy)(phenoxy)phosphoryl)-amino) propanoate], for which the Visual toxicity in data set [1] was over 167. Also, the EC50 – broadly, the concentration giving half of the maximal effect – in data set [5] is under 168 µM. Also, the 90% effect level in data set [3] (setting [7]) (EC90) was put at 5.9 µM.
The molecule `CNc1nc(N)nc2c1ncn2[C@@H]1O[C@](C)(CO[P@@](=O)(N[C@@H](C)C(=O)OC(C)C)Oc2ccccc2)[C@@H](O)[C@H]1F` [Compound AB, (S)-Isopropyl 2-(((S)-(((2R,3R,4R,5R)-5-(2-amino-6-(methylamino)-9H-purin-9-yl)-4-fluoro-3-hydroxy-2-methyltetrahydrofuran-2-yl)methoxy)(phenoxy)phosphoryl)amino) propanoate] yielded a Visual toxicity in data set [1] of over 17. Also, the IC50 was over 100 µM in data set [2] (Homo sapiens, 336 h); over 100 µM in data set [4] (Homo sapiens, CFU-GM, 336 h); over 100 µM in the data set on iPS cardiomyocytes. Moreover, in data set [3], the 90% effect concentration (EC90) was determined as 0.052 µM.
For `CNc1nc(N)nc2c1ncn2[C@@H]1O[C@](C)(CO)[C@@H](O)[C@H]1F` [Compound C, (2R,3R,4R,5R)-5-(2-Amino-6-(methylamino)-9H-purin-9-yl)-4-fluoro-2-(hydroxymethyl)-2-methyltetrahydrofuran-3-ol], the Visual toxicity in data set [1] is given as over 320. In data set [6], the EC50 was over 100 µM. The same molecule came in with an EC90 in data set [3] (setting [7]) of 3.2 µM. The TC50 in the data set on HEp-2 cells was over 100.
On to `CN(C)c1nc(N)nc2c1ncn2[C@@H]1O[C@@](CO)(CCl)[C@@H](O)[C@H]1F` [Compound K, (2R,3R,4R,5R)-5-(2-Amino-6-(dimethylamino)-9H-purin-9-yl)-2-(chloromethyl)-4-fluoro-2-(hydroxymethyl)tetrahydrofuran-3-ol], for which the Visual toxicity in data set [1] was over 277. The 50% effective concentration (EC50) in data set [5] is over 225 µM. Besides, the EC90 in data set [3] (setting [7]) is 74.8 µM.
The molecule `CC(C)OC(=O)[C@H](C)NP(=O)(OC[C@@]1(CCl)O[C@@H](n2cnc3c(N(C)C)nc(N)nc32)[C@H](F)[C@@H]1O)Oc1ccccc1` (stereo partly drawn) [Compound L, (2S)-Isopropyl 2-(((((2R,3R,4R,5R)-5-(2-amino-6-(dimethylamino)-9H-purin-9-yl)-2-(chloromethyl)-4-fluoro-3-hydroxytetrahydrofuran-2-yl)methoxy)(phenoxy)phosphoryl)amino)propanoate] came in with a Visual toxicity in data set [1] of 158. In addition, the EC50 in data set [5] was over 159 µM. The molecule also displayed an EC90 in data set [3] (setting [7]) of 13.5 µM.
For `CN(C)c1nc(N)nc2c1ncn2[C@@H]1O[C@](C)(CO)[C@@H](O)[C@@H]1F` [Compound S] the same measures were over 307, over 306 µM and over 300 µM.
The molecule `CC[C@]1(CO)O[C@@H](n2cnc3c(N(C)C)nc(N)nc32)[C@@H](F)[C@@H]1O` [Compound U, (2R,3R,4S,5R)-5-(2-Amino-6-(dimethylamino)-9H-purin-9-yl)-2-ethyl-4-fluoro-2-(hydroxymethyl)tetrahydrofuran-3-ol] registered a Visual toxicity in data set [1] of over 294. The EC50 in data set [5] was over 294 µM. Moreover, the EC90 in data set [3] (setting [7]) is over 294 µM.
In turn, `CC[C@]1(COP(=O)(N[C@@H](C)C(=O)OC(C)C)Oc2ccccc2)O[C@@H](n2cnc3c(N(C)C)nc(N)nc32)[C@@H](F)[C@@H]1O` (stereo partly drawn) [Compound V, (2S)-Isopropyl 2-(((((2R,3R,4S,5R)-5-(2-amino-6-(dimethylamino)-9H-purin-9-yl)-2-ethyl-4-fluoro-3-hydroxytetrahydrofuran-2-yl)methoxy)(phenoxy)phosphoryl)-amino) propanoate] came in with a Visual toxicity in data set [1] of 164. Moreover, the EC50 in data set [5] was over 164 µM. This molecule also showed an EC90 in data set [3] (setting [7]) of 44.8 µM.
On to `COc1cc2nc(N3CCN(C(=O)C4COc5ccccc5O4)CC3)nc(N)c2cc1OC` (stereo not drawn) [Doxazosin, reference compound], for which inhibition with iPS cardiomyocytes was half-maximal at 12.5 µM (IC50).
